≈ marks a conversion by molar mass, not a printed value.
Columns and labels:
[1] = system: Mycobacterium tuberculosis; experiment: Antimycobacterial activity against Mycobacterium tuberculosis CIP 103471; type: functional
[2] = system: Mycobacterium gordonae; experiment: Antimycobacterial activity against Mycobacterium gordonae CIP 6427; type: functional
[3] = system: Mycobacterium avium; experiment: Antimycobacterial activity against Mycobacterium avium CIP 103317; type: functional
[4] = system: Vero; experiment: In vitro cytotoxicity against VERO cells.; type: functional, Chlorocebus sabaeus
[5] = system: Mycolicibacterium smegmatis; experiment: Antibacterial activity against Mycobacterium smegmatis CIP 103599.; type: functional
[6] = system: Mycobacterium marinum; experiment: Antimycobacterial activity against Mycobacterium marinum CIP 6423; type: functional
[7] = system: Mycobacterium avium; experiment: Compound was tested for anti-mycobacterial activity against Mycobacterium avium CIP 103317; type: functional
[8] = system: Mycobacterium gordonae; experiment: Compound was tested for anti-mycobacterial activity against Mycobacterium gordonae CIP 6427; type: functional
[9] = system: Mycobacterium tuberculosis; experiment: Compound was tested for anti-mycobacterial activity against Mycobacterium tuberculosis CIP 103471; type: functional
[10] = system: Vero; experiment: Compound was tested for cytotoxicity against VERO cells; type: functional, Chlorocebus sabaeus
[11] = system: Mycobacterium marinum; experiment: Compound was tested for anti-mycobacterial activity against Mycobacterium marinum CIP 6423.; type: functional

Row | Compound | MIC [1] | MIC [2] | MIC [3] | MTD50 [4] | MIC [5] | MIC [6] | MIC [7] | MIC [8] | MIC [9] | MTD50 [10] | MIC [11]
1 | CCOC(=O)c1cn(Cc2ccc(F)cc2)cc1-c1ccccc1 | > 16 µg/mL | > 16 µg/mL | 16 µg/mL (≈ 49.5 µM) | 4 µg/mL | > 16 µg/mL | > 16 µg/mL | – | – | – | – | –
2 | O=[N+]([O-])c1c(Cl)cccc1-c1c[nH]cc1Cl [PYRROLNITRIN] | – | – | – | 8 µg/mL | 16 µg/mL (≈ 62.2 µM) | > 16 µg/mL | 8 µg/mL (≈ 31.1 µM) | > 16 µg/mL | 4 µg/mL (≈ 15.6 µM) | – | –
3 | CN[C@@H]1[C@H](O[C@H]2[C@H](O[C@H]3[C@H](O)[C@@H](O)[C@H](N=C(N)N)[C@@H](O)[C@@H]3N=C(N)N)O[C@@H](C)[C@]2(O)C=O)O[C@@H](CO)[C@H](O)[C@H]1O [STREPTOMYCIN] | 0.5 µg/mL (≈ 0.86 µM) | 16 µg/mL (≈ 27.5 µM) | 8 µg/mL (≈ 13.8 µM) | 128 µg/mL | 8 µg/mL (≈ 13.8 µM) | 32 µg/mL (≈ 55 µM) | – | – | – | – | –
4 | CCOC(=O)c1cn(C)cc1-c1ccc(Cl)cc1 | > 16 µg/mL | > 16 µg/mL | > 16 µg/mL | – | > 16 µg/mL | > 16 µg/mL | – | – | – | – | –
5 | O=[N+]([O-])c1c[nH]cc1-c1cccc(Cl)c1 | > 16 µg/mL | > 16 µg/mL | > 16 µg/mL | – | > 16 µg/mL | > 16 µg/mL | – | – | – | – | –
6 | Cn1cc(C(=O)O)c(-c2ccc(Cl)cc2)c1 | > 16 µg/mL | > 16 µg/mL | 16 µg/mL (≈ 67.9 µM) | – | > 16 µg/mL | > 16 µg/mL | – | – | – | – | –
7 | NNC(=O)c1c[nH]cc1-c1ccc(Cl)cc1 | > 16 µg/mL | > 16 µg/mL | > 16 µg/mL | 16 µg/mL | > 16 µg/mL | > 16 µg/mL | – | – | – | – | –
8 | COc1ccc(-c2c[nH]cc2[N+](=O)[O-])c(Cl)c1 | > 16 µg/mL | > 16 µg/mL | 16 µg/mL (≈ 63.3 µM) | 2 µg/mL | > 16 µg/mL | > 16 µg/mL | – | – | – | – | –
9 | CCOC(=O)c1cn(Cc2ccccc2)cc1-c1ccc(OC)cc1 | 8 µg/mL (≈ 23.9 µM) | > 16 µg/mL | > 16 µg/mL | 8 µg/mL | > 16 µg/mL | > 16 µg/mL | – | – | – | – | –
10 | NNC(=O)c1ccncc1 [ISONIAZID] | 0.25 µg/mL (≈ 1.82 µM) | 32 µg/mL (≈ 233 µM) | 32 µg/mL (≈ 233 µM) | 32 µg/mL | 64 µg/mL (≈ 467 µM) | 16 µg/mL (≈ 117 µM) | – | – | – | – | –
11 | O=[N+]([O-])c1c[nH]cc1-c1ccccc1Cl | > 16 µg/mL | > 16 µg/mL | > 16 µg/mL | – | > 16 µg/mL | > 16 µg/mL | – | – | – | – | –
12 | Cn1cc(-c2ccc(Cl)cc2Cl)c([N+](=O)[O-])c1 | > 16 µg/mL | > 16 µg/mL | > 16 µg/mL | – | > 16 µg/mL | > 16 µg/mL | – | – | – | – | –
13 | NC(=O)c1c[nH]cc1-c1ccc(Cl)cc1 | > 16 µg/mL | > 16 µg/mL | > 16 µg/mL | 16 µg/mL | > 16 µg/mL | > 16 µg/mL | – | – | – | – | –
14 | CCOC(=O)c1cn(C)cc1-c1ccc(OC)cc1 | – | > 16 µg/mL | > 16 µg/mL | – | > 16 µg/mL | > 16 µg/mL | – | – | > 16 µg/mL | 4 µg/mL | –
15 | CCOC(=O)c1cn(Cc2ccc(F)cc2)cc1-c1ccc(OC)cc1 | 16 µg/mL (≈ 45.3 µM) | > 16 µg/mL | > 16 µg/mL | 2 µg/mL | > 16 µg/mL | > 16 µg/mL | – | – | – | – | –
16 | O=C(O)c1cn(Cc2ccc(Cl)cc2)cc1-c1ccc(Cl)cc1 | 16 µg/mL (≈ 46.2 µM) | > 16 µg/mL | 16 µg/mL (≈ 46.2 µM) | 8 µg/mL | > 1 µg/mL | > 16 µg/mL | – | – | – | – | –
17 | O=[N+]([O-])c1c[nH]cc1-c1cc(Cl)cc(Cl)c1 | 8 µg/mL (≈ 31.1 µM) | > 16 µg/mL | 16 µg/mL (≈ 62.2 µM) | 1 µg/mL | > 16 µg/mL | > 16 µg/mL | – | – | – | – | –
18 | CCOC(=O)c1c[nH]cc1-c1ccc(Cl)cc1Cl | > 16 µg/mL | > 16 µg/mL | > 16 µg/mL | 2 µg/mL | > 16 µg/mL | > 16 µg/mL | – | – | – | – | –
19 | O=[N+]([O-])c1c[nH]cc1-c1ccc(Cl)c(Cl)c1 | 8 µg/mL (≈ 31.1 µM) | > 16 µg/mL | 16 µg/mL (≈ 62.2 µM) | 2 µg/mL | > 16 µg/mL | > 16 µg/mL | – | – | – | – | –
20 | NC(=O)c1c[nH]cc1-c1ccc(Cl)cc1Cl | > 16 µg/mL | > 16 µg/mL | 16 µg/mL (≈ 62.7 µM) | 0.125 µg/mL | > 16 µg/mL | > 16 µg/mL | – | – | – | – | –
21 | O=[N+]([O-])c1c[nH]cc1-c1c(Cl)cccc1Cl | > 16 µg/mL | > 16 µg/mL | > 16 µg/mL | – | > 16 µg/mL | > 16 µg/mL | – | – | – | – | –
22 | O=[N+]([O-])c1c[nH]cc1-c1ccc(Cl)cc1 | > 16 µg/mL | > 16 µg/mL | > 16 µg/mL | – | > 16 µg/mL | > 16 µg/mL | – | – | – | – | –
23 | O=[N+]([O-])c1c[nH]cc1-c1cccc(Cl)c1Cl | 16 µg/mL (≈ 62.2 µM) | > 16 µg/mL | > 16 µg/mL | 1 µg/mL | > 16 µg/mL | – | – | – | – | – | > 16 µg/mL
24 | Cn1cc(-c2ccc(Cl)cc2)c([N+](=O)[O-])c1 | > 16 µg/mL | > 16 µg/mL | > 16 µg/mL | – | > 16 µg/mL | > 16 µg/mL | – | – | – | – | –
25 | OCc1cn(Cc2ccccc2Cl)cc1-c1ccc(Cl)cc1 | 8 µg/mL (≈ 24.1 µM) | > 16 µg/mL | > 16 µg/mL | 15 µg/mL | > 16 µg/mL | > 16 µg/mL | – | – | – | – | –
26 | O=[N+]([O-])c1c[nH]cc1-c1ccc(Cl)cc1Cl | 1 µg/mL (≈ 3.89 µM) | > 16 µg/mL | 16 µg/mL (≈ 62.2 µM) | 1 µg/mL | > 16 µg/mL | > 16 µg/mL | – | – | – | – | –
27 | CCOC(=O)c1c[nH]cc1-c1ccc(Cl)cc1 | 16 µg/mL (≈ 64.1 µM) | > 16 µg/mL | 4 µg/mL (≈ 16 µM) | 4 µg/mL | > 16 µg/mL | > 16 µg/mL | – | – | – | – | –
28 | COc1ccc(-c2cn(C)cc2[N+](=O)[O-])c(Cl)c1 | > 16 µg/mL | > 16 µg/mL | > 16 µg/mL | 2 µg/mL | > 16 µg/mL | > 16 µg/mL | – | – | – | – | –
29 | Cn1cc(-c2ccccc2Cl)c([N+](=O)[O-])c1 | > 16 µg/mL | > 16 µg/mL | > 16 µg/mL | – | > 16 µg/mL | > 16 µg/mL | – | – | – | – | –

— ChEMBL document CHEMBL1130637, “Pyrrolnitrin and related pyrroles endowed with antibacterial activities against Mycobacterium tuberculosis” (1998)
